In patent US8134015B2, “Compound inhibiting in vivo phosphorous transport and medicine containing the same” (Kyowa Hakko Kirin Co., Ltd., priority 2003, dated 2012):
pIC50: −log10 of the molar value. Where a name gives a salt, the structure may show the parent alone.

Molecular target: T1, rat NaPi-2b (Rattus norvegicus, UniProt Q9JJ09)
T1 construct: expressed in transfected cells; host or cells: Xenopus oocytes injected with cRNA
T1 sequence (Q9JJ09 1-695): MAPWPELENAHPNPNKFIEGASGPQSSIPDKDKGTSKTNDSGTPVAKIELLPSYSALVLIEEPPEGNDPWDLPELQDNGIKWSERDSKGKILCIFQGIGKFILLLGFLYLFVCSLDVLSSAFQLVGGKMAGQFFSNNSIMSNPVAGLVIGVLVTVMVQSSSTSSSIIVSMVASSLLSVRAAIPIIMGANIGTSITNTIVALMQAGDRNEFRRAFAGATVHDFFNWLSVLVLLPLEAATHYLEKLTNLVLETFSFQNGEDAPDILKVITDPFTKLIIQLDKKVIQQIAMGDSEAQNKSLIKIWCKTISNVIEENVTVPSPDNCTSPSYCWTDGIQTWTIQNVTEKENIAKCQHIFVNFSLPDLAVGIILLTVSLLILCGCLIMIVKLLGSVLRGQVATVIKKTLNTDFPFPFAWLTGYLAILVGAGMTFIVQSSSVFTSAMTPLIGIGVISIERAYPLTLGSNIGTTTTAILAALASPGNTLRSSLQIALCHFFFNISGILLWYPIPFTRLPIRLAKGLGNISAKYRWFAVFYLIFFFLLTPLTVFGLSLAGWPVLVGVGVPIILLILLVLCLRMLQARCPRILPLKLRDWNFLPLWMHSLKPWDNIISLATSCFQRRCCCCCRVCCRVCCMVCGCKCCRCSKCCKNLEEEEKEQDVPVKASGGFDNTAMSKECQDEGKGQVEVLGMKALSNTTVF
Assay: Sodium-dependent phosphate uptake of Xenopus oocytes which expressed NaPi-2b (32P)
Type: cell-based
Settings: for pIC50: Xenopus oocytes expressing rat NaPi-2b, 32P radioactive phosphorus, read-out: IC50 (phosphate uptake inhibitory activity); for inhibition at 300 µM: phosphate uptake, oocytes expressing rat NaPi-2b, determined from inhibition curve
In short: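 Rat small-intestine NaPi-2b cRNA injected into Xenopus oocytes, expressed for 2 days. Sodium-dependent phosphate uptake measured with 32P; % inhibition at 300 and 100 μM taken from the same inhibition curve.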

Row | pIC50 | inhibition at 300 µM | Compound
1 | 4.83 |  | Cc1ccc(/C=N/NC(=O)c2cc(OCCN3CCCCC3)ccc2NC(=O)c2cccc(CSCCO)c2)cc1 [Compound 1042, 3-(2-Hydroxy-ethylsulfanylmethyl)-N-[2-(4-methyl-benzylidene-hydrazinocarbonyl)-4-(2-piperidin-1-yl-ethoxy)-phenyl]-benzamide]
2 | > 5.52 |  | Cc1ccc(/C=N/NC(=O)c2ccccc2NC(=O)c2ccncc2)cc1 [Compound 203, N-[2-(4-Methyl-benzylidene-hydrazinocarbonyl)-phenyl]-isonicotinamide hydrochloride]
3 | 5.47 |  | COc1ccc(/C=N/NC(=O)c2cc(Br)ccc2NC(=O)c2ccc(CN3CCC(N4CCCCC4)CC3)cc2)cc1 [Compound 314, 4-[1,4′]Bipiperidinyl-1′-ylmethyl-N-[4-bromo-2-(4-methoxy-benzylidene-hydrazinocarbonyl)-phenyl]-benzamide]
4 | 5.67 |  | Cc1cccc(/C=N/NC(=O)c2ccccc2NC(=O)c2cc(C)oc2C)c1 [Compound 516, 2,5-Dimethyl-furan-3-carboxylic acid [2-(3-methyl-benzylidene-hydrazinocarbonyl)-phenyl]-amide]
5 | > 5.52 |  | Cc1ccc(/C=N/NC(=O)c2ccsc2NC(=O)c2cccc(CN(CC(C)O)CC(C)O)c2)cc1 (stereo not drawn) [Compound 671, 3-{[Bis-(2-hydroxy-propyl)-amino]-methyl}-N-[3-(4-methyl-benzylidene-hydrazinocarbonyl)-thiophen-2-yl]-benzamide]
6 | 6.06 |  | Cc1ccc(/C=N/NC(=O)c2ccccc2NC(=O)c2cccnc2)cc1C [Compound 133, N-[2-(3,4-Dimethyl-benzylidene-hydrazinocarbonyl)-phenyl]-nicotinamide]
7 | > 5.52 |  | Cc1ccc(/C=N/NC(=O)c2ccsc2NC(=O)c2cccc(CSCCCO)c2)cc1C [Compound 658, N-[3-(3,4-Dimethyl-benzylidene-hydrazinocarbonyl)-thiophen-2-yl]-3-(3-hydroxy-propylsulfanylmethyl)-benzamide]
8 | 5.15 |  | O=C(Nc1ccc(Cl)cc1C(=O)N/N=C/c1cccc(F)c1)c1ccccn1 [Compound 359, Pyridin-2-carboxylic acid [4-chloro-2-(3-fluoro-benzylidene-hydrazinocarbonyl)-phenyl]-amide]
9 | 5.08 |  | Cc1ccc(/C=N/NC(=O)c2cc(OCCN3CCCCC3)ccc2NC(=O)c2cccc(CSCCO)c2)cc1C [Compound 1043, N-[2-(3,4-Dimethyl-benzylidene-hydrazinocarbonyl)-4-(2-piperidin-1-yl-ethoxy)-phenyl]-3-(2-hydroxy-ethylsulfanylmethyl)-benzamide]
10 | 5.22 |  | Cc1ccc(/C=N/NC(=O)c2c(C)csc2NC(=O)c2cccc(CN3CCC(N4CCCCC4)CC3)c2)cc1 [Compound 570, 3-[1,4′]Bipiperidinyl-1′-ylmethyl-N-[4-methyl-3-(4-methyl-benzylidene-hydrazinocarbonyl)-thiophen-2-yl]-benzamide]
11 | 5.98 |  | CCCN(CCC)c1ccc(NC(=O)c2cccc(CN(C)CCN(CC)CC)c2)c(C(=O)N/N=C/c2ccc(OC)cc2)c1 [Compound 912, 3-{[(2-Diethylamino-ethyl)-methyl-amino]-methyl}-N-[4-dipropylamino-2-(4-methoxy-benzylidene-hydrazinocarbonyl)-phenyl]-benzamide]
12 | 5.13 |  | Cc1ccc(/C=N/NC(=O)c2cc(Cl)ccc2NC(=O)c2cccc(CSc3nnnn3CCN(C)C)c2)cc1 [Compound 465, N-[4-Chloro-2-(4-methyl-benzylidene-hydrazinocarbonyl)-phenyl]-3-[1-(2-dimethylamino-ethyl)-1H-tetrazol-5-ylsulfanylmethyl]-benzamide]
13 | 5.82 |  | COc1ccc(/C=N/NC(=O)c2ccccc2NC(=O)c2ccc(OC)c(OC)c2)cc1Br [Compound 34, N-[2-(3-Bromo-4-methoxy-benzylidene-hydrazinocarbonyl)-phenyl]-3,4-dimethoxy-benzamide]
14 |  | 70.2% | Cc1ccc(/C=N/NC(=O)c2ccsc2NC(=O)c2cccc(CN(CC(C)O)CC(C)O)c2)cc1C (stereo not drawn) [Compound 670, 3-{[Bis-(2-hydroxy-propyl)-amino]-methyl}-N-[3-(3,4-dimethyl-benzylidene-hydrazinocarbonyl)-thiophen-2-yl]-benzamide]
15 |  | 50.1% | Cc1ccc(/C=N/NC(=O)c2scc(C)c2NC(=O)c2cccc(CSc3nc[nH]n3)c2)cc1C [Compound 523, N-[2-(3,4-Dimethyl-benzylidene-hydrazinocarbonyl)-4-methyl-thiophen-3-yl]-3-(1H-[1,2,4]triazol-3-ylsulfanylmethyl)-benzamide]
16 | 4.73 |  | CCc1ccc(C(=O)Nc2ccc(Br)cc2C(=O)N/N=C/c2ccc(F)cc2)cc1 [Compound 179, N-[4-Bromo-2-(4-fluoro-benzylidene-hydrazinocarbonyl)-phenyl]-4-ethyl-benzamide]
17 | 5.82 |  | COc1ccc(C(=O)Nc2scc(C)c2C(=O)N/N=C/c2cccc(C)c2)cc1OC [Compound 518, 3,4-Dimethoxy-N-[4-methyl-3-(3-methyl-benzylidene-hydrazinocarbonyl)-thiophen-2-yl]-benzamide]
18 |  | 76% | Cc1ccc(/C=N/NC(=O)c2scc(C)c2NC(=O)c2cccc(CN3CCN(CCO)CC3)c2)cc1C [Compound 532, N-[2-(3,4-Dimethyl-benzylidene-hydrazinocarbonyl)-4-methyl-thiophen-3-yl]-3-[4-(2-hydroxy-ethyl)-piperazin-1-ylmethyl]-benzamide]
19 | > 5.52 |  | CCN(CC)CCNCc1cccc(C(=O)Nc2scc(C)c2C(=O)N/N=C/c2cccc(F)c2)c1 [Compound 584, 3-[(2-Diethylamino-ethylamino)-methyl]-N-[3-(3-fluoro-benzylidene-hydrazinocarbonyl)-4-methyl-thiophen-2-yl]-benzamide]
20 | 5.58 |  | Cc1ccc(/C=N/NC(=O)c2c(C)csc2NC(=O)c2cccc(CSc3nc[nH]n3)c2)cc1 [Compound 552, N-[4-Methyl-3-(4-methyl-benzylidene-hydrazinocarbonyl)-thiophen-2-yl]-3-(1H-[1,2,4]triazol-3-ylsulfanylmethyl)-benzamide]
21 | 6.96 |  | CCN(CC)CCN(C)Cc1ccc(C(=O)Nc2ccc(Br)cc2C(=O)NN=Cc2ccc(F)cc2)cc1 [Compound 287, N-[4-Bromo-2-(4-fluoro-benzylidene-hydrazinocarbonyl)-phenyl]-4-{[(2-diethylamino-ethyl)-methyl-amino]-methyl}-benzamide]
22 | 6.11 |  | CCN(CC)CCN(C)Cc1ccc(C(=O)Nc2ccc(Br)cc2C(=O)N/N=C/c2ccc(C)c(C)c2)cc1 [Compound 280, N-[4-Bromo-2-(3,4-dimethyl-benzylidene-hydrazinocarbonyl)-phenyl]-4-{[(2-diethylamino-ethyl)-methyl-amino]-methyl}-benzamide]
23 | 5.27 |  | COc1ccc(C(=O)Nc2ccccc2C(=O)N/N=C/c2cc(C(C)(C)C)c(O)c(C(C)(C)C)c2)cc1OC [Compound 6, N-[2-(3,5-Di-tert-butyl-4-hydroxy-benzylidene-hydrazinocarbonyl)-phenyl]-3,4-dimethoxy-benzamide]
24 | 5.80 |  | CCN(CC)CCN(Cc1cccc(C(=O)Nc2sc3c(c2C(=O)N/N=C/c2cccc(F)c2)CCCC3)c1)C(C)=O [Compound 655, 3-{[Acetyl-(2-diethylamino-ethyl)-amino]-methyl}-N-[3-(3-fluoro-benzylidene-hydrazinocarbonyl)-4,5,6,7-tetrahydro-benzo[b]-thiophen-2-yl]-benzamide]
